# Legend:
# [1] = test system: 48-G7 antibody (monoclonal IgG made against a p-nitrophenylphosphonate hapten); test: 48-G7 antibody-catalyzed hydrolysis of p-nitrophenylcarbonate in aqueous tris buffer, inhibition by transition state analog; assay type: biochemical; details: 24 µM inhibitor, 90 µg/ml 48-G7, 10 mM tris buffer pH 8.5
# Procedure: A solution of the 48-G7 antibody was purified from ascites fluid by Protein A chromatography. Following dialysis of the IgG fractions which were obtained into 10 mM tris buffer, 4.0 ml of a 3.0 mg/ml solution of this protein was lyophilyzed to dryness. The protein powder was then resuspended in 1.5 ml of 10 mM tris buffer (pH 8.5). When 10 µl of this antibody solution was added to one milliliter of buffer, a protein concentration of 0.090 mg/ml resulted (as determined from 280 nm and 260 nm absorbances). Thus, the stock antibody solution was 9.0 mg/ml.
# The rate of antibody catalyzed hydrolysis of p-nitrophenylcarbonate was determined by adding 15 µl of a 50 mM p-nitrophenylcarbonate (p-NPC) solution dissolved in tetrahydrofuran to 3.0 ml of 10 mM tris buffer (pH 8.5). After this solution was mixed to homogeneity, 1.0 ml was transferred into a reference cuvette and 1.0 ml was transferred into a sample cuvette. An assay was initiated by addition of 10 µl of the 48-G7 antibody solution (0.090 mg). The progress of the reaction was monitored with a Hitachi Model 3200 double beam spectrophotometer (to screen out the rate of solvent-induced background hydrolysis) at 400 nm. The extinction coefficient for the product, p-nitrophenol, was 18,300 M^-1 cm^-1 at pH 8.5.
# [2] = test system: 48-G7 antibody (monoclonal IgG made against a p-nitrophenylphosphonate hapten); test: 48-G7 antibody-catalyzed hydrolysis of p-nitrophenylcarbonate in AOT/iso-octane microemulsion, inhibition by transition state analog; assay type: biochemical; details: 24 µM final concentration of inhibitor; 50 mM AOT in iso-octane, 888 µM p-NPC; uninhibited rate 0.00028 Abs/minute
# Procedure: The rate of 48-G7 antibody-catalyzed hydrolysis of p-NPC was determined in a 50 mM solution of sodium bi-(2-ethylhexyl) sulfosuccinate ("AOT") in iso-octane containing 888 µM of p-NPC. First 20 ml of the iso-octane solution containing 0.445 g of AOT (M.W.=445g) and 3.5 mg of p-NPC (M.W.-197g) were prepared. To this solution […] (pH 8.5) and 10 µl of the 48-G7 antibody solution were added. A microemulsion of disperse aqueous phase in the iso-octane was obtained by mixing. The hydrolysis of p-NPC and the production of p-nitrophenol was monitored at 400 nm, although an accurate conversion between 400 nm absorbance and moles of p-nitrophenol formed was not possible because the pH inside the microemulsified aqueous phase particles could not be accurately determined.
# Upon addition of the 48-G7 antibody solution, the biphasic system became turbid as the antibody-containing, microemulsified aqueous phase particles formed. Subsequently, absorbance at 400 nm began to increase as p-nitrophenol was formed. The rate of 400 nm absorbance increase was 0.00028 Abs/minute.
# When this experiment was repeated with the 10 µl of tris buffer containing 2.4 mM p-nitrophosphonate hapten (24 µM final concentration), the initial 400 nm absorbance was similar to the non-inhibited antibody solution. […] Instead, the 400 nm absorbance continued to decrease. […]
compound,measurement,setting,value
O=[N+]([O-])c1ccc(P(=O)(O)O)cc1 [p-nitrophenylphosphonate],rate of hydrolysis of p-NPC in the presence of inhibitor,[1]; uninhibited rate 0.49 µmolar p-NPC per minute,0.109 µM/min
same,rate of hydrolysis of p-NPC in the presence of inhibitor (400 nm absorbance),[1]; uninhibited rate 0.0089 Abs/min,0.002 Abs units/minute
same,400 nm absorbance (p-nitrophenylcarbonate hydrolysis) in the presence of inhibitor,[2],did not rise
